Molecules are shown by their SMILES. A value given as a limit tells only on which side of the number the result lay.

Series [1] in a line: in situ FT-IR monitoring of F-DOPA degradation in aqueous solution. The series is classed as physicochemical. As to the method: Aimed at better understanding the nature of the F-DOPA degradation products, the progress of the oxidation of F-DOPA was investigated by in situ FT-IR experiments at pH 8.0 and 5.15 at 25 °C (Figure 3).
Nevertheless, an overlapping of the carbonyl and carboxyl groups in the range 1670-1650 cm^-1 of the postulated o-quinone derivatives (Scheme 1) should occur in aqueous solution. However, similar o-quinone species show typical bands at 1660, 1480 and 1380 cm^-1, and are known to be very unstable turning black the solution upon standing. […] Thus, in situ IR experiments confirm the long-time stability of F-DOPA in acidic conditions (pH < 5.15) and the high propensity to undergo degradation under basic conditions. The pH-rate profile was carried out in order to obtain kinetic data.
The degradation pathway and the progress of the F-DOPA oxidation in aqueous solutions were further investigated by in situ FT-IR experiments at pH 8.0 and 5.15 at 25 °C. The experiments were carried out using a Mettler-Toledo ReactIR 4000 and Ic15 instruments equipped with a diamond-tipped (DiComp®) probe (Spectra elaborated with ConcIR® software), monitoring the C=O stretching of the F-DOPA and following new absorptions likely related to oxidized products (Castagnolo, D. et al. 2015; Mansueto, R. et al 2014). In a Schlenk tube equipped with a stirring bar and the React-IR probe, a 0.02 M F-DOPA aqueous solution at pH 5.15 was introduced via syringe at room temperature. Reference spectra for the pure solvent and F-DOPA were collected separately before starting the experiments. The solution was stirred for 10 min, to verify the stability of the readout, and spectra collected every 30 sec. The solution was then stirred for 24 h and constantly monitored by IR spectroscopy.

A short description of series [2]: UV-Vis absorbance stability in sterile physiological solution. Format: physicochemical. The text has this: This behavior was further supported by monitoring the change in UV-Vis absorbance of a pH 6.4 sterile physiological solution containing F-DOPA. […]
A short description of series [3]: enantioselective HPLC (optical stability, racemization). Format: physicochemical. The conditions noted are these: 4 mg/mL, 24 h at both 25 and 45 °C, sterile perfusion solution at pH 6.0.
Method: The HPLC system used to check the chemical stability of F-DOPA, related to its possible oxidation and racemization, consisted of a Waters Associates (Milford, MA, USA) model 1515 equipped with an isocratic pump, a Waters 2487 UV-vis detector, and the Breeze Software to analyze the chromatographic data. The HPLC analysis were performed on a reverse-phase column (Agilent Zorbax SB-Aq C8; 150 x 4.6 mm - 5 µm) kept at room temperature using detection wavelengths of 200 and 280 nm. The mobile phase consisted of 6.9 g/L solution of sodium dihydrogen phosphate adjusted to pH 2.4 with a 4.8 g/L solution of phosphoric acid, and the flow rate was 1 mL/min. The standard injection volume was 20 µL. […] To evaluate optical stability of F-DOPA, chromatograms were recorded on a teicoplanin aglycone-based chiral stationary phase (250 × 4.6 mm, particle size 5 µm, pore size 8 nm) CHIROBIOTIC (ASTEC, Whippany, NJ, USA), by eluting with a mixture 80% acetonitrile and 20% water, at a flow rate of 1 mL/min and a temperature of 25 °C.
Series [4] in a line: amount of F-DOPA dissolved in the formulation compositions. The series is classed as physicochemical. The conditions noted are these: in the ND1, ND2 and ND3 compositions. How it is done: Optimum stability for F-DOPA in aqueous formulations is achieved by maintaining the pH at acidic values, by excluding oxygen and incorporating in the formula a chelating agent for metal ion initiators of free-radical oxidation reactions. […] In order to formulate F-DOPA at the optimum acidic pH range, the appropriate buffer was selected. Lactate buffer (1 mM, pH 5.0) was chosen to formulate the parenteral solution, firstly because lactic acid is currently used in intravenous solutions and is already present in commercial formulation and, secondly, because this solution has a pH value compatible with the direct infusion avoiding or minimizing the pain at the injection site. Finally, common methods for decelerating the initiation step require eliminating initiators and catalysts from the formulation. Metals ions can be sequestered by the use of chelators, such as EDTA, citric acid and tartaric acid. […] For comparison purposes the ND3 formulation, having the same commercially available formulation "master formula", was also prepared by solubilizing F-DOPA in an aqueous solution of 17.5 mM acetic acid (1.05 mg/mL, pH = 3.1). In order to mimic the commercial formulation, immediately before its use the pH of ND3 was adjusted to a higher pH value (measured pH = 7.2) by the addition of 100 µL per mL of a sterile solution of 1 M (84 mg/mL) sodium bicarbonate. […]

Series [5] can be described thus: cell viability assay, fiber counting (mortality rate). Conditions: male, C57BL6, mouse. As to the method:
(§1) Single fibers were isolated from the Flexor Digitorum Brevis (FDB) muscles dissected from male C57BL6 mice (N° of mice = 3). Isolated fibers were obtained by incubating the FDB muscles with Dulbecco's modified Eagle's medium (DMEM+) solution composed by IX antibiotics (1%), L-glutamine (1%), FBS (10%) (EuroClone, S.p.A. Milan, Italy) enriched with 0.3 mg/ml collagenase type XI-S (Sigma Chemical Co.).
(§2) For "in vitro" cell viability tests, the F-DOPA powder was directly solubilized in the complete cell culture medium (DMEM+). Stock solutions of ND1, ND2 and ND3 formulations were prepared at the concentration of 10 mg/ml. Microliter amounts of the stock solutions were then added to DMEM as needed, to obtain the final concentrations.
(§3) The fibers were plated, counted under a microscope, and incubated for 3h with increasing concentrations of F-DOPA, ND1, ND2 and ND3 formulations and an imaging analysis was then performed. At the end of the incubation time, the cytotoxicity expressed as mortality rate with respect to the control condition was evaluated by counting the fibers before and after the incubation period.
(§4) The mortality rate of the fibers and cells was calculated by the following equation: [(Ntreated/NCTRL)×100]−100 [formula] where Ntreated is the number of the treated cells and NCTRL is the number of untreated cells.
(§5) The following three parametric logistic function was used to fit the concentrationmortality data of different F-DOPA formulations: percentage change of the mortality rate(%) = Emax ((1+EC50/DOSE))^slope [formula] where Emax, is the maximal drug effect; EC50, is the concentration needed to cause the 50% percent change of the maximal effect; DOSE, is the applied concentration; slope, is the hill slope of the curve (SIGMAPlot 10.0, Systat Software, Inc.).

Series [6] relates to mouse skeletal muscle fibers. Described as above. The conditions noted are these: Mus musculus. How it is done: as §1, §2, §3, §4, §5

With `N[C@@H](Cc1cc(O)c(O)cc1F)C(=O)O` [F-DOPA, (2S)-2-Amino-3-(6-fluoro-3,4-dihydroxyphenyl)propanoic acid], in series [1] (buffer at pH = 8.0, within 2 h, 25 °C), the “loss of vC=O absorbance” value is 10%. Moreover, the “additional peaks in the range 1800-1200 cm^-1 (FT-IR)” value in series [1] (pH 5.15, after 16 h, 25 °C) is “no additional peaks”. In series [1] (stirring at pH = 8.0 for 24 h), the “appearance of the transparent aqueous solution” value is “turned to black”. The “decrease in F-DOPA initial concentration” value in series [2] (pH 6.4, degassed sterile 0.9% NaCl, 1 to 4 mg/mL, 25 or 45 °C, 6 h, absorbance at 298 nm) is listed as “less than 5%”. In series [2] (pH 6.4, sterile 0.9% NaCl, after 24 h incubation), the colour of sample entry is given as “pale pink color”. Moreover, in series [3], the racemization result is listed as “no racemization occurs”. Moreover, the “F-DOPA dissolved per mL” value in series [4] was 10 mg/mL. In series [5], this compound returned a mortality at 3 h, 0.02 mg/ml of under 15% and a mortality at 3 h, 0.05 mg/ml of over 50%. Further, the Emax in series [6] came to 100%. Also, the response in series [6] (3 h) was half-maximal at 185 µM (EC50).

The values above are taken from patent EP3551232B1, “STABLE F-DOPA FORMULATIONS AND USES THEREOF” (priority 2016, dated 2018).
